System: ICR mouse
Assay: Streptozotocin-induced diabetes in ICR mice
Assay type: in vivo
Conditions: 60 mg/kg three times i.p., normal ICR mouse 200 mg/dl
Method: FIG. 7 illustrates the effect of PL on experimental group with streptozotocin-induced diabetes. Blood glucose values were measured with Accutrend sensor system (Boehringer Mannheim, Germany).
Streptozotocin, which can induce Insulin-dependent diabetes mellitus, destroys selectively pancreatic beta cells, and diabetes mellitus induced :by streptozotocin is similar with diabetes naturally occurring in NOD mice. […] ICR mouse received 60 mg/kg of streptozotocin three times with intraperitoneal injection. Streptozotocin was used in solution of citrate buffer (pH 4.2, 4° C.). The blood glucose level of ICR mouse treated with streptozotocin was 450 mg/dl, whereas that of normal ICR mouse without streptozotocin was 200 mg/dl (FIG. 7).

CN(N=O)C(=O)N[C@H]1C(O)O[C@H](CO)[C@@H](O)[C@@H]1O (mixture of isomers) [streptozotocin]
blood glucose level: 450 mg/dL
